Test results from ChEMBL document CHEMBL1132795, “Stereoselective binding of an enantiomeric pair of stromelysin-1 inhibitors caused by conformational entropy factors” (Bioorg Med Chem Lett, 2000).

Assays:
[1] = Binding affinity of compound to the stromelysin-1 catalytic domain at pH 6.7, 22 degree C
[2] = Binding affinity of compound to the stromelysin-1 catalytic domain at pH 6.0, 22 degree C

Kd [1] | Kd [2] | Compound
679 nM | – | CC(C)[C@@H](NS(=O)(=O)c1ccc(-c2ccc(Br)cc2)cc1)C(=O)O
76.6 nM | 6.7 nM | CC(C)[C@H](NS(=O)(=O)c1ccc(-c2ccc(Br)cc2)cc1)C(=O)O
